The results in this text go back to ChEMBL document CHEMBL1201862, “PubChem BioAssay data set” (2004).

What all share (assay): growth of human tumour cells (NCI), 48 h
For test [1], the system named is HCT-15.
The subject of test [2] is SK-MEL-28.
The test system of test [3] is HOP-92.
Test [4] has as its system A498.
Test [5] has as its system NCI/ADR-RES.
For test [6], the system named is M19-MEL.
Test [7] has as its system XF498.
The test system of test [8] is SNB-75.
Test [9] relates to NCI-H23.
The test system of test [10] is NCI-H226.
The subject of test [11] is KM-20L2.
Test [12] relates to NCI-H522.
In test [13] the test system is SF-539.
Test [14] has as its system KM12.
The test system of test [15] is T47D.
Test [16] has as its system ACHN.
Test [17] has as its system MDA-MB-435.
Test [18] concerns MDA-MB-231.
Test [19] deals with M14.
Test [20] concerns SR.

Where “and” joins values, the source holds several entries; their conditions need not be identical. Identical values can stand only once.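 Cells were grown in 96-well plates and exposed to each compound for 48 hours at five concentrations; endpoints were interpolated linearly between bracketing concentrations, or set to the highest concentration if not reached. GI50 is the concentration that inhibits growth by half.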 Calls of active or inactive are those of the source. Rule as the data show it: active = GI50 up to about 1.1 µM and inactive = higher. Non-standard residues stand in square brackets, D forms with d. Residues, ends and D or L forms follow the SMILES beside them. ξ: configuration not given here. *: point of attachment. ξF = NC(Cc1ccccc1)C(=O)O; Cbz = O=C(OCc1ccccc1)*; Aib = CC(C)(N)C(=O)O

With `Nc1ccn(C2OC(COP(=O)(O)Oc3ccccc3)C(O)C2O)c(=O)n1` (configuration not stated), the GI50 in test [1] is > 60 µM; in test [2], 9.38 µM (inactive); in test [3], 18.6 µM (inactive); in test [4], 4.06 µM (inactive); in [5], 16.7 µM (inactive); in test [6], 50.2 µM (inactive). For the same compound, the GI50 was < 0.01 µM (active) in [7]; > 100 µM (inactive) in [8]; 7.36 µM (inactive) in test [9]; > 100 µM (inactive) in [10]; > 39.7 µM (inactive) in test [11]; 16.6 µM (inactive) in test [12]. The values for the GI50 in test [13] and in test [14] were 93.3 µM (inactive) and > 100 µM (inactive), respectively.

As to `COc1ccc(N2NC(c3ccccc3)(c3ccccc3)C(C)C2=O)cc1` (configuration not stated), the GI50 is 39 µM (inactive) in test [15]; 39.5 µM in test [1]; 42.7 µM (inactive) in [16]; > 100 µM (inactive) in [2]; 48.5 µM (inactive) in [3]; > 100 µM (inactive) in [4]. For the same compound, the GI50 is 48.2 µM (inactive) in [5]; 57.3 µM (inactive) in [17]; > 100 µM (inactive) in test [8]; 52.1 µM (inactive) in test [18]; 65.6 µM (inactive) in [9]; 49.8 µM (inactive) in test [10]. The GI50 in [19] was 57.1 µM (inactive); in test [12], 43.9 µM (inactive); in [13] it was 85.1 µM (inactive); in test [20] it was 96.6 µM (inactive); in test [14] it was 33 µM (inactive).

`CN1C(=O)c2ccccc2NC(=O)c2cnn(C)c21`: the GI50 in [1] was > 100 µM; in [2] it was > 100 µM (inactive); in test [3], > 100 µM (inactive); in test [4], > 100 µM (inactive); in [5], > 100 µM (inactive); in test [6], > 100 µM (inactive). Further, the GI50 in test [7], in [8], in [9], in [10], in test [11] and in [12] was > 100 µM (inactive) each time. For the same compound, the GI50 in test [13] and in [14] was > 100 µM (inactive) throughout.

With `C/C(CCOC1CCCCO1)=C(\C)[Si](C)(C)C` (configuration not stated), the GI50 in test [1] was > 100 µM; in test [16] it was > 100 µM (inactive); in [2] it was > 100 µM (inactive); in test [3], > 100 µM (inactive); in test [4], > 100 µM (inactive); in test [6] it was > 100 µM (inactive). Moreover, the GI50 in test [7], in [8], in test [9], in test [19], in test [11] and in test [12] was > 100 µM (inactive) each time. Further, the GI50 in test [13], in test [20] and in [14] was > 100 µM (inactive) each time.

Consider `c1cc(CNC2C3CCC(C3)C2c2c[nH]c3ccccc23)cc(CNC2C3CCC(C3)C2c2c[nH]c3ccccc23)c1` (configuration not stated), for which the GI50 was 1.75 µM (inactive) and 1.74 µM (inactive) in test [15]; 1.19 µM (inactive) and 1.57 µM (inactive) in test [16]; 658 nM (active) and 637 nM (active) in test [17]; 752 nM (active) and 1.3 µM (inactive) in test [8]; 1.59 µM (inactive) and 1.51 µM (inactive) in test [18]; 1.68 µM (inactive) and 1.77 µM (inactive) in test [9]. Moreover, the GI50 in test [10] was 2 µM (inactive) and 2.07 µM (inactive); in [19], 667 nM (active) and 638 nM (active); in test [12] it was 1.12 µM (active) and 1.36 µM (inactive); in test [20], 258 nM (active) and 186 nM (active); in [14], 596 nM (active) and 759 nM (active).

Turning to `COc1ccc(N2C(=O)C(=O)C3(CCCCC3)C2=O)c2ccccc12`, the GI50 is > 10 µM (inactive) in [15]; > 10 µM in test [1]; > 10 µM (inactive) in test [16]; > 10 µM (inactive) in test [2]; > 10 µM (inactive) in [4]; > 10 µM (inactive) in test [5]. Moreover, the GI50 in test [17], in [8], in [18], in test [9], in test [10] and in test [19] was > 10 µM (inactive) in each case. The GI50 in [12], in test [13], in test [20] and in [14] was > 10 µM (inactive) in each case.

As for `C[n+]1cccc2c(=O)c3ccccc3oc21`, the GI50 in test [15] was > 100 µM (inactive); in test [1], > 100 µM; in test [16], > 100 µM (inactive); in test [2] it was > 100 µM (inactive); in [3], > 100 µM (inactive); in [4], > 100 µM (inactive). In addition, the GI50 in test [5], in test [17], in test [8], in test [18], in test [9] and in test [10] was > 100 µM (inactive) each time. In addition, the GI50 in [19], in [12], in [13], in test [20] and in test [14] was > 100 µM (inactive) in each case.

`C=CCCCC12CCCc3cccc(c31)NC2=O` (configuration not stated): the GI50 is 28.1 µM (inactive) in [16]; 13.8 µM (inactive) in test [3]; 19.6 µM (inactive) in test [4]; 20.6 µM (inactive) in [7]; 18.1 µM (inactive) in test [9]; 20.6 µM (inactive) in test [10]. Further, the GI50 in test [19] was 14.4 µM (inactive); in [11] it was 21.2 µM (inactive); in test [12] it was 16.9 µM (inactive); in [13], 19.6 µM (inactive); in [20], 20.8 µM (inactive); in test [14], 17.4 µM (inactive).

As for `COc1ccc(-n2cnnc2-c2nsc3ccccc23)cc1`, the GI50 in test [1] was 51.6 µM; in test [16] it was 90.6 µM (inactive); in [2], 78.2 µM (inactive); in test [3] it was 45.1 µM (inactive); in test [6] it was > 100 µM (inactive); in test [8], 22.2 µM (inactive). The GI50 was 95.3 µM (inactive) in test [9]; > 100 µM (inactive) in test [19]; > 100 µM (inactive) in test [11]; 23.4 µM (inactive) in test [13]; > 100 µM (inactive) in test [20]; 95.1 µM (inactive) in test [14].

For `O=c1[nH]c(=S)[nH]c2c(C3OC(CO)C(O)C3O)nsc12` (configuration not stated), the GI50 in [15] is > 100 µM (inactive); in test [1] it was > 100 µM; in test [2], > 100 µM (inactive); in test [3], > 100 µM (inactive); in test [4], > 100 µM (inactive); in test [5], > 100 µM (inactive). In addition, the GI50 is > 100 µM (inactive) in test [17]; > 100 µM (inactive) in test [8]; > 100 µM (inactive) in [10]; > 100 µM (inactive) in [19]; > 100 µM (inactive) in test [13]; > 10 µM (inactive) in test [20].

On to `COc1ccc(N2C(=O)C(=O)N(C)C2=O)c2ccccc12`, for which the GI50 in test [15] is > 10 µM (inactive); in test [1], > 10 µM; in [16], > 10 µM (inactive); in test [2] it was > 10 µM (inactive); in test [4] it was > 10 µM (inactive); in test [5], > 10 µM (inactive). Further, the GI50 in [17], in test [8], in test [18], in [9], in test [10] and in [19] was > 10 µM (inactive) in each case. Moreover, the GI50 in test [12], in test [13], in [20] and in [14] was > 10 µM (inactive) throughout.

For the compound `CCOC(=O)CNC(=O)C(Cc1ccccc1)NC(=O)C(C)(C)NC(=O)OCc1ccccc1` (configuration not stated) (Cbz-[Aib]-[ξF]-Gly-OEt), the GI50 is 77.8 µM (inactive) in test [15]; > 100 µM in [1]; > 100 µM (inactive) in [16]; 17.9 µM (inactive) in test [2]; > 100 µM (inactive) in [3]; > 100 µM (inactive) in test [4]. In addition, the GI50 in [5] is > 100 µM (inactive); in test [17], 67.3 µM (inactive); in test [18], > 100 µM (inactive); in test [19], 37.7 µM (inactive); in test [12] it was 29.8 µM (inactive); in test [20], 30.3 µM (inactive).

`COC1=CC(=O)c2c(c(O)c3oc4cc(OC)cc(C)c4c(=O)c3c2O)C1=O` [BIKAVERIN]: the GI50 in [1] is 1.21 µM; in test [2], 2.03 µM (inactive); in [3], 0.578 µM (active); in test [4], 1.37 µM (inactive); in [5] it was 0.881 µM (active); in test [6], 0.908 µM (active). Moreover, the GI50 in test [7] is 0.942 µM (active); in test [8], 1.21 µM (inactive); in test [9], 1.07 µM (active); in test [10], 0.159 µM (active); in test [11], 5.94 µM (inactive); in test [12] it was 0.716 µM (active). Also, the values for the GI50 in test [13] and in [14] were 1.32 µM (inactive) and 3.25 µM (inactive), respectively.
